{"source": "patent US20250276994A1", "about": "“CAP ANALOG FOR THE 5'-END OF EUKARYOTIC MESSENGER RNAS” (WESTFÄLISCHE WILHELMS-UNIVERSITÄT, priority 2021, published 2025)", "key": {"T7 RNA polymerase": {"biological_target": "T1, T7 RNA polymerase (Escherichia phage T7, UniProt P00573)", "T1 construct": "purchased Thermo Scientific", "T1 sequence (P00573 whole entry)": "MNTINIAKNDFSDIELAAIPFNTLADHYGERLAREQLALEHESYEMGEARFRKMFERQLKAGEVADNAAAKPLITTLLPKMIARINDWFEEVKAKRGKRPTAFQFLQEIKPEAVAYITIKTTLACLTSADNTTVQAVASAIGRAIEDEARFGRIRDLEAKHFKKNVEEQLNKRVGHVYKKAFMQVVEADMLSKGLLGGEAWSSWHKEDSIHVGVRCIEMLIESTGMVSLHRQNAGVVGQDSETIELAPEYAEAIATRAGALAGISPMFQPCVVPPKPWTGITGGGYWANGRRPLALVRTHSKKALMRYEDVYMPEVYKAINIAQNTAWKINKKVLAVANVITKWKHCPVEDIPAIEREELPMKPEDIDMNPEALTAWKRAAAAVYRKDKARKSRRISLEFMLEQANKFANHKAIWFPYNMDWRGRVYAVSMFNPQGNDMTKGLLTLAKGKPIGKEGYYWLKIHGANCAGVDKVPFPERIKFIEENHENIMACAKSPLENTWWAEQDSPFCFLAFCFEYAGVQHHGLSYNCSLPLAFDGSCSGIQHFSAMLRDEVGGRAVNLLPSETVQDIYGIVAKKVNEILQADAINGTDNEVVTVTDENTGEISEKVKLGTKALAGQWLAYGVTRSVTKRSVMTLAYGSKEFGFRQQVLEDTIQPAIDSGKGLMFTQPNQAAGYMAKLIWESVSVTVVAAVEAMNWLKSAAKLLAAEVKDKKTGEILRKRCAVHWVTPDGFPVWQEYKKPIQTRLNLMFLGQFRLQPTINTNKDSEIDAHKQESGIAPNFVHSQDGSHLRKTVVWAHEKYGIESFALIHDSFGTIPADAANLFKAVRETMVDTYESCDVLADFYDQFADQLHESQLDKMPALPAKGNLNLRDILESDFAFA", "test": "In vitro transcription of GLuc mRNA with cap analogs, gel analysis", "assay_type": "biochemical", "description": "First, the DNA sequence coding for eGFP, Firefly luciferase (FLuc) or Gaussia luciferase (GLuc) mRNAs were amplified from pmRNA-vectors containing the respective sequence. After purification (NucleoSpin Gel and PCR Clean-up, Macherey-Nagel), the resulting linear dsDNA was used as template (200 ng) for in vitro T7 transcription performed in transcription buffer (40 mM Tris/HCl, 25 mM NaCl, 8 mM MgCl2, 2 mM spermidine(HCl)3) by adding either a A/C/UTP (0.5 mM) mix or a mix with modified nucleotides (A/m^5C/N^1-methylpseudo-UTP) (0.5 mM), GTP (0.25 mM), GpppG, m7GpppG, ApppG, DMNB or NPOM cap analog (1 mM), T7 RNA polymerase (50 U) (Thermo Scientific) and pyrophosphatase (0.1 U) (Thermo Scientific) for 4 h at 37° C. Remaining DNA template was digested in presence of 2 U DNase I for 1 h at 37° C. and then mRNAs were purified using the RNA Clean & Concentrator™-5 Kit (Zymo Research). To digest non-capped RNAs, 10 U of the RNA 5′-polyphosphatase (Epicentre) as well as the supplied reaction buffer were added to purified mRNAs. After an incubation period of 30 min at 37° C., 0.5 U of the 5′-3′ exoribonuclease XRN1 (NEB) and MgCl2 (5 mM) were added. The reaction mixture was incubated for 60 min at 37° C. Subsequently, capped mRNAs were purified using the RNA Clean & Concentrator™-5 Kit (Zymo Research).\nThe photocleavable 5′-cap analogs of formulas (12) and (18) were used for in vitro transcription of GLuc mRNA as described above and analysed via agarose gel electrophoresis.\n“M” denotes Riboruler low range RNA ladder."}, "Reticulocyte Lysate": {"system": "Reticulocyte Lysate", "test": "In vitro translation of capped FLuc-mRNA and luminescence measurement", "assay_type": "biochemical", "details": "capped FLuc-mRNA", "description": "In vitro translation was performed using a eukaryotic cell free protein expression kit from Reticulocyte Lysate (Invitrogen). Experiments were performed in 12.5 μL total volume containing 20 ng of the corresponding FLuc-mRNAs, 50 μM L-methionine and 150 mM potassium acetate. Samples were mixed with 8.5 μL of the reticulocyte lysate and incubated for 90 min at 30° C. Afterwards, 2 μL of the respective translation mix were used in subsequent luminescence measurement. The translation efficiency of the reporter mRNAs was assessed in a luciferase assay using Beetle-juice Luciferase Assay Firefly (pjk). Luciferase activity was determined by adding 50 μL freshly prepared substrate solution to the translation mixture. Luminescence was monitored using a Tecan Infinite® m1000pro microplate reader with an acquisition time of 3 s (duration of signal acquisition).\nThe photocleavable 5′-cap analog of formula (7) was used for in vitro transcription to make FLuc mRNA as described above. This was used for in vitro translation and Luminescence measurement as described above. The commercial non-modified cap analog denoted “m^7GpppG” (Jena Bioscience) was used as positive control. Samples were irradiated for 30 seconds. The ApppG capped mRNA, which is not recognized by the translation initiation factor served as negative control, which is substracted from the other samples as it represents background activity. The experiment was performed in quadruplicates. The FLuc-mRNA capped with the photocleavable 5′-cap analog of formula (7) is denoted “ONB”.\nThe in vitro translation assay and luminescence measurement was performed as described above using the photocleavable 5′-cap analog of formula (12). The capped mRNA was denoted “DMNB-m^7GpCH2ppG capped FLuc-mRNA”. Samples were irradiated for 30 seconds (365 nm) or 60 seconds (405 nm). The commercial non-modified cap analog denoted “m^7GpppG” (Jena Bioscience) was used as positive control and all other samples were normalized to it. The ApppG capped mRNA, which is not recognized by the translation initiation factor served as negative control, which is substracted from the other samples as it represents background activity. The experiment was performed in triplicates, except *DMNB-m7GpCH2ppG (365 nm) which was a single determination.\nThe in vitro translation assay in reticulocyte lysate and luminescence measurement was performed as described above using m^7GpppG capped FLuc-mRNA caged with the photocleavable 5′-cap analog of formulas (22) and (25) (denoted “DMNB m^7GpppG” and “NPOM m^7GpppG”). Samples were irradiated for 30 seconds at 365 nm. The ApppG capped mRNA, which is not recognized by the translation initiation factor served as negative control, which was substracted from the other samples as it represents background activity. The values were normalized to the non-irradiated sample with m^7GpppG capped mRNA (100%). The experiment was performed in triplicates.\nThe in vitro translation assay in reticulocyte lysate and luminescence measurement was performed as described above using m^7GpppG capped FLuc-mRNA with modified nucleotides m^5C and N^1methyl-pseudouridine caged with the photocleavable 5′-cap analog of formulas (22) and (25) (denoted “DMNB m^7GpppG mod” and “NPOM m^7GpppG mod”). Samples were irradiated for 30 seconds at 365 nm. The ApppG capped mRNA, which is not recognized by the translation initiation factor served as negative control, which was substracted from the other samples as it represents background activity. The values were normalized to the non-irradiated sample with m^7GpppG capped mRNA (100%). The experiment was performed in triplicates."}}}
{"molecule": "COc1cc(COC(=O)Nc2nc3c(c(=O)[nH]2)[n+](C)cn3[C@@H]2O[C@H](COP(=O)(O)CP(=O)(O)OP(=O)(O)OC[C@H]3O[C@@H](n4cnc5c(=O)[nH]c(N)nc54)C(O)C3O)C(O)C2O)c([N+](=O)[O-])cc1OC", "note": "(stereo partly drawn) [compound 12, P1-(N^2-(4,5-Dimethoxy-2-nitrobenzyl)oxycarbonyl-7-methylguanosin-5′-yl)-P3-guanosin-5′-yl 1,2-methylenetriphosphate]", "values": [{"measurement": "incorporation of cap analog into RNA", "setting": "T7 RNA polymerase", "value": "incorporated into the RNA"}, {"measurement": "in vitro translation (luminescence) after irradiation", "setting": "Reticulocyte Lysate; 30 seconds (365 nm) or 60 seconds (405 nm)", "value": "partially restored"}, {"measurement": "in vitro translation (luminescence), non-irradiated", "setting": "Reticulocyte Lysate; non-irradiated, normalized to m^7GpppG capped mRNA", "value": "successfully inhibited to a high degree"}]}
